These results are taken from US12109190B2, “Urolithins as immune response enhancers” (Amazentis SA, priority 2018, dated 2024).

Structures are written as SMILES.

Experiment [1] deals with haematopoietic stem cells (HSCs) and multipotent progenitor cells (MPPs). The experiment in a line: Flow cytometry of bone marrow haematopoietic progenitor cell populations from aged mice fed Urolithin A. It counts as in vivo. The conditions noted are these: aged C57BL/6J mice, 50 mg/kg/day in diet, 34 weeks; for HSC population as % of total bone marrow cells and number of cells: FIG. 4, versus untreated aged animals, cell number p<0.05, 50 mg/kg/day. As for the experimental part: To determine if Urolithin A treatment had any effects on stem cell populations, haematopoietic stem cells, (HSCs) and multipotent progenitor cells (MPPs) were isolated from aged C57BL/6J mice that received either a standard rodent diet or a diet containing Urolithin A mixed with food to reach a dosing of 50 mg/kg/day delivered to mice. Mice were treated with urolithin A starting at 16 months of age and received 34 weeks of treatment. At end of the treatment period mice were sacrificed and bone marrow collected from the femur and tibia bones. Single-cell suspensions were made following cell extraction from the bones after removal of muscle and connective tissue.
To determine the effects of Urolithin A treatment on the different progenitor cells of the haematopoietic system, the number and percentage of each progenitor cell type was determined using flow cytometry. Flow cytometry allowed the selection and quantification of cells with different patterns of protein expression on their cell surface. Using labeled monoclonal antibodies, it was possible to identify the different progenitor cell population based on their cell surface protein expression. To isolate the undifferentiated cells which would contain the progenitor population, bone marrow cells were stained with a cocktail of monoclonal antibodies against the cell surface proteins specific to the more differentiated cell types. The antibodies to these proteins, also known as lineage markers were CD3e (17A2), CD4 (GK1.5), CD8a (53.6.7), CD11b (M1/70), CD19 (1D3), Gr1 (RB6.8C5), Ter119 and NK1.1 (PK136), these were conjugated to Alexa 647 [Alexa Fluor 647 dye is a bright, far-red—fluorescent dye used as a label in, for example, fluorescence microscopy]. To discriminate the various lineage progenitor cell populations the isolated bone marrow cells were stained with monoclonal antibodies against the following progenitor cell surface protein markers containing the following labels CD34 (RAM 34)-FITC; CD135 (Flt3 A2F10)-PE; CD48 (HM48.1)-biotin+PE Texas Red Streptavidin; CD117 (ckit 2B8) PerCp-Cy5.5; Sca1 (D7)-PE-Cy7. Cell analysis of the stained cells was performed on a Becton Dickson Flow cytometer (Franklin Lake, NJ, USA) and collected data was analyzed using Flowjo™ software (an analysis platform for single-cell flow cytometry analysis). Bone marrow was isolated from three mice receiving Urolithin A treatment, and six control untreated mice.
To identify the different populations of haematopoietic progenitor cells present in the isolated bone marrow cells, the isolated bone marrow cells were selected based on their cell surface marker combinations. A so-called gating strategy was employed, in which a particular population of cells is selected (gated) based on the pattern of cell surface protein expression, and then this sub-selected population then is further examined for its cell surface protein expression. […] Uncommitted progenitor cells were examined by selecting cells that were negative for the cell surface proteins found on differentiated cells (lineage markers) described above (FIG. 2B). From this population of lineage negative cells, cells were selected that stained positive for the cells surface markers, CD117 (c-kit) and Sca1. This subpopulation of lineage negative, CD117 & Sca1 positive cells (LKS cells) contain the progenitor stem cells (FIG. 2C).
LKS cells can be further divided into four different progenitor cell types, HSC (LT-HSC), MPP 1 (ST-HSC), MPP2, and MPP3 or LMPP with decreasing levels of quiescence (FIG. 1B). The most quiescent and non-committed cells are the HSC cells. To differentiate between these cell populations in the LKS cells, Cells were examined for their expression of CD150 and CD48. The most primitive quiescent cell populations, HSC+MPP1, are positive for the cell surface marker for CD150 and negative for the cell surface marker CD48. […]

Experiment [2] concerns IL-10 / IL-12 (p40). The experiment in a line: Plasma cytokines (MILLIPLEX panel) in aged mice after Urolithin A in diet. It counts as in vivo. The settings on record: 22 months old male C57BL/6J mice, 50 mg/kg/day in diet, 6 weeks; FIG. 6; p<0.05. On the procedure:
Urolithin A is admixed to AIN-93G Growing Rodent Diet (Research Diet, New Brunswick, NJ, USA) at a concentration of 0.5 g/per kg of diet, corresponding to a dose of 50 mg/kg/dy. Pellets with or without UA are given to 22 months old male C57BL/6J mice (Janvier, Saint Berthevin, France) for 6 weeks. A total of 32 mice are housed individually and randomized to 16 animals per group according to their exercise capacity. Animals who die spontaneously during the experiments are excluded from the calculations. These criteria were established before starting the experiments. Animals are euthanized after 6 weeks of treatment after an overnight fasting before collecting blood samples by the vena cava. Blood samples are centrifuged for 15 minutes at 1,500×g, and the plasma supernatant is transferred into a clean tube. Plasma is analyzed for cytokines using the MILLIPLEX MAP Mouse Cytokine/Chemokine Magnetic Bead Panel (MCYTOMAG-70K).
IL-10 is an important anti-inflammatory cytokine (Fiorentino D F, et al., IL-10 inhibits cytokine production by activated macrophages. J Immunol. 1991 Dec. 1; 147(11):3815-22; Fiorentino D F et al., IL-10 acts on the antigen-presenting cell to inhibit cytokine production by Th1 cells. J Immunol. 1991 May 15; 146(10):3444-51). […]

For `O=c1oc2cc(O)ccc2c2ccc(O)cc12` [Urolithin A], the “HSC population as % of total bone marrow cells and number of cells” value in experiment [1] is on record as “increase”; in experiment [1] (listed as urolithin A) it was “significant increase”. Besides, the “LSK (c-Kit+, Lin-, Sca1+) progenitor cells as % of lineage negative cells” value in experiment [1] (bone marrow, example plot FIG. 2C, control 3.16%) came out at 5.27%. Moreover, in experiment [1] (example animal FIG. 3, untreated 53.1%), the “% of LSK cells that are HSC+MPP1 (CD150+, CD48-)” value was 61.7%. Also, in experiment [1] (example animal FIG. 3, untreated 73.8%), the “% of HSC+MPP1 cells that are HSC (CD34-)” value came to 81.7%. In addition, the “HSC + MPP1, % of undifferentiated cells (LSK cells)” value in experiment [1] (group value n=3, untreated 40.75 ± 7.42%, p < 0.01) was determined as 58.97 ± 11.30%. Moreover, the “ratio of IL-10 over IL-12 (p40) in plasma” value in experiment [2] is “significant increase”.
